Values joined by “and” are separate entries in the source; they are usually repeats but may differ in a detail not shown here. Equal values may be shown once.
Experiments:
[1] = Biodistribution studies of the 18F tracers in rats; format: in vivo, male Wistar rats; details: rat, i.v.
Procedure: Biodistribution studies were carried out in healthy male Wister rats (body weight 200-500 g) at 2 min, 30 min and 60 min post injection (p.i.) (n=3/time point). For |^18F|B-4 only the 2 min and 30 min time points were studied. […] Blood and major organs were collected in tared tubes and weighed. The radioactivity in blood, organs and other body parts was measured using an automated gamma counter. The distribution of radioactivity in different parts of the body at different time points p.i. of the tracer was calculated and expressed as percentage of injected dose (% ID), and as percentage of injected dose per gram tissue (% ID/g) for the selected organs. % ID is calculated as cpm in organ/total cpm recovered. For calculation of total radioactivity in blood, blood mass was assumed to be 7% of the body mass.

PDE10A = biological target: T1, PDE10A (Rattus norvegicus, UniProt Q9QYJ6); assay: MicroPET imaging studies; format: in vivo, male Wistar rats
T1 construct: from tissue; host or cells: brain (striatum) of living male Wistar rats, in vivo microPET
T1 sequence (Q9QYJ6 1-794): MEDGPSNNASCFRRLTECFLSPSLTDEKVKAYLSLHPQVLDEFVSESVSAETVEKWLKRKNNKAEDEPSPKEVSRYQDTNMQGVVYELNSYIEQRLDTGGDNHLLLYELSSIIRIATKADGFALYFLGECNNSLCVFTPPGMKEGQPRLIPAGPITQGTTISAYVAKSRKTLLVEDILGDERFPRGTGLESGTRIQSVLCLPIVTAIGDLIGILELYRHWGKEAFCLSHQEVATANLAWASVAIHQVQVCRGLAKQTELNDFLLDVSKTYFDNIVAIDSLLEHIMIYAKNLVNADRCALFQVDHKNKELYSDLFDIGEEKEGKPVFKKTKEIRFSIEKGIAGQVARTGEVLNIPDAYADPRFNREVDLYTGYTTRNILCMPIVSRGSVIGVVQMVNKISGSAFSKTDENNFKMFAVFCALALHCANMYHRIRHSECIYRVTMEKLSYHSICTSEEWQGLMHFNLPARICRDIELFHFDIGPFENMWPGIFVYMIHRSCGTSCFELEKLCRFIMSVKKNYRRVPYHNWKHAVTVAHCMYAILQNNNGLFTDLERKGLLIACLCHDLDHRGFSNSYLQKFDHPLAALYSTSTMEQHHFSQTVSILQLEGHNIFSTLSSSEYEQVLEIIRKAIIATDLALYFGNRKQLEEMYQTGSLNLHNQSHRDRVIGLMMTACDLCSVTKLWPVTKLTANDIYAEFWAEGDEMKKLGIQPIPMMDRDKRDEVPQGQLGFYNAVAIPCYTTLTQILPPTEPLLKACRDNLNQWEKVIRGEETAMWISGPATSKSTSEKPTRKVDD
Procedure: Imaging experiments were performed on a Focus™ 220 microPET scanner (Concorde Microsystems, Knoxville, Tenn., USA) using male Wistar rats with body weight varying between 300 and 600 g. […] Dynamic scans of 120 min were acquired in list mode. After reconstruction of the images, they were semi-automatically co-registered with a [^11C]raclopride template of the rat brain, and volumes of interest (VOIs) were generated for different anatomical brain structures (striatum, cerebral cortex and cerebellum) from which time-activity curves (TAC) were constructed for each individual image, using PMOD software (PMOD Technologies Ltd.). Normalization for body weight of the animal and injected dose was done. The radioactivity concentration in the different brain regions was expressed as SUV (standardized uptake value) as a function of time in seconds post injection of the radiotracer. The parametric binding potential (BP) values were calculated for all acquired images by using a simplified reference tissue model where the TAC of the cerebellum was used as input TAC for non-specific binding, using the same software (PMOD).
The radioactivity concentration in the different brain regions was expressed as SUV value as a function of time p.i. of the radiotracer by normalization for body weight of the animal and injected dose.

COc1ccc(COc2ccc(-c3nn(CC[18F])cc3-c3ccncc3)cc2)nc1 [[^18F]B-4]
total initial brain uptake ([1]; 2 min p.i.): 0.40 % ID
% ID in the urinary system ([1]; 30 min p.i.): ~2.5 % ID
% ID, Blood ([1]; 30 min p.i.): 3.35 ± 0.5 % ID
% ID, Carcass ([1]; 30 min p.i.): 26.15 ± 1.2 % ID
% ID, Cerebellum ([1]; 30 min p.i.): 0.028 ± 0.002 % ID
% ID, Cerebrum total ([1]; 30 min p.i.): 0.208 ± 0.027 % ID
% ID, Cortex ([1]; 30 min p.i.): 0.022 ± 0.002 % ID
% ID, Heart ([1]; 30 min p.i.): 0.28 ± 0.1 % ID
% ID, Hippocampus ([1]; 30 min p.i.): 0.004 ± 0.000 % ID
% ID, Intestines ([1]; 30 min p.i.): 12 % ID and 11.98 ± 1.9 % ID
% ID, Kidneys ([1]; 30 min p.i.): 1.71 ± 0.3 % ID
% ID, Liver ([1]; 30 min p.i.): 47 % ID and 47.40 ± 3.5 % ID
% ID, Lungs ([1]; 30 min p.i.): 0.35 ± 0.1 % ID
% ID, Rest of cerebrum ([1]; 30 min p.i.): 0.162 ± 0.030 % ID
% ID, Spleen + Pancreas ([1]; 30 min p.i.): 0.56 ± 0.1 % ID
% ID, Stomach ([1]; 30 min p.i.): 8 % ID and 8.08 ± 3.7 % ID
% ID, Striatum ([1]; 30 min p.i.): 0.019 % ID and 0.019 ± 0.003 % ID
% ID, Urine ([1]; 30 min p.i.): 0.75 ± 0.1 % ID
% ID/g normalized for body weight, Blood ([1]; 30 min p.i.): 0.05 ± 0.01 % ID/g × body wt. in kg
% ID/g normalized for body weight, Cerebellum ([1]; 30 min p.i.): 0.029 ± 0.00 % ID/g × body wt. in kg
% ID/g normalized for body weight, Cerebrum + Cerebellum ([1]; 30 min p.i.): 0.04 ± 0.00 % ID/g × body wt. in kg
% ID/g normalized for body weight, Cerebrum total ([1]; 30 min p.i.): 0.043 ± 0.00 % ID/g × body wt. in kg
% ID/g normalized for body weight, Cortex ([1]; 30 min p.i.): 0.040 ± 0.01 % ID/g × body wt. in kg
% ID/g normalized for body weight, Heart ([1]; 30 min p.i.): 0.07 ± 0.01 % ID/g × body wt. in kg
% ID/g normalized for body weight, Hippocampus ([1]; 30 min p.i.): 0.029 ± 0.00 % ID/g × body wt. in kg
% ID/g normalized for body weight, Kidneys ([1]; 30 min p.i.): 0.19 ± 0.03 % ID/g × body wt. in kg
% ID/g normalized for body weight, Liver ([1]; 30 min p.i.): 1.05 ± 0.03 % ID/g × body wt. in kg
% ID/g normalized for body weight, Lungs ([1]; 30 min p.i.): 0.07 ± 0.00 % ID/g × body wt. in kg
% ID/g normalized for body weight, Rest of cerebrum ([1]; 30 min p.i.): 0.041 ± 0.00 % ID/g × body wt. in kg
% ID/g normalized for body weight, Spleen + Pancreas ([1]; 30 min p.i.): 0.11 ± 0.01 % ID/g × body wt. in kg
% ID/g normalized for body weight, Striatum ([1]; 30 min p.i.): 0.125 % ID/g × body wt. in kg and 0.125 ± 0.01 % ID/g × body wt. in kg
% ID/g, Blood ([1]; 30 min p.i.): 0.18 ± 0.03 % ID/g
% ID/g, Cerebellum ([1]; 30 min p.i.): 0.104 ± 0.005 % ID/g
% ID/g, Cerebrum + Cerebellum ([1]; 30 min p.i.): 0.151 ± 0.016 % ID/g
% ID/g, Cerebrum total ([1]; 30 min p.i.): 0.157 ± 0.019 % ID/g
% ID/g, Cortex ([1]; 30 min p.i.): 0.145 ± 0.026 % ID/g
% ID/g, Heart ([1]; 30 min p.i.): 0.24 ± 0.04 % ID/g
% ID/g, Hippocampus ([1]; 30 min p.i.): 0.108 ± 0.013 % ID/g
% ID/g, Kidneys ([1]; 30 min p.i.): 0.68 ± 0.12 % ID/g
% ID/g, Liver ([1]; 30 min p.i.): 3.85 ± 0.04 % ID/g
% ID/g, Lungs ([1]; 30 min p.i.): 0.24 ± 0.02 % ID/g
% ID/g, Rest of cerebrum ([1]; 30 min p.i.): 0.149 ± 0.019 % ID/g
% ID/g, Spleen + Pancreas ([1]; 30 min p.i.): 0.40 ± 0.02 % ID/g
% ID/g, Striatum ([1]; 30 min p.i.): 0.458 ± 0.041 % ID/g
radioactivity concentration, the other brain regions (than striatum) ([1]; 30 min p.i.): ≤ 0.040 % ID/g corrected for body weight
striatum/blood ratio (from % ID/g normalized for body weight) ([1]; 30 min p.i.): 2.61
striatum/cerebellum ratio (from % ID/g normalized for body weight) ([1]; 30 min p.i.): 4.38
striatum/hippocampus ratio (from % ID/g normalized for body weight) ([1]; 30 min p.i.): 4.25
peak (maximum) striatum-to-cerebellum ratio (PDE10A; baseline microPET): 4.4
time of peak striatum-to-cerebellum ratio (PDE10A; baseline microPET): about 6 min p.i.
time until which peak striatum-to-cerebellum ratio remained (PDE10A; baseline microPET): about 13 min p.i.
BP (binding potential) at baseline (PDE10A; simplified reference tissue model, cerebellum as reference): 2.5

Reference: patent US8852554B2, “Radiolabelled PDE10 ligands” (Janssen Pharmaceutica NV, priority 2009, dated 2014)
